What was measured:
Test in all cases: relative viability (nuclei count vs DMSO), 5 days (fraction); higher = more cells survive
[1] = test system: A-427
Procedure, shortened: (§1)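 For relative viability, nuclei counts in treated wells were divided by those in vehicle wells. Lung cancer cell lines had been pin-tool dosed in 1536-well plates the day after seeding and cultured for 5 days, then fixed and stained in one step (final 0.05% Triton X-100, 1% formaldehyde, 1 ug/ml Hoechst) and imaged at 4×. Doses were one drug alone or a fixed anchor-drug dose plus five library-drug doses (not always all listed) in √10 steps, and values are duplicate-plate medians.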

[2] = test system: COR-L 105
Procedure, shortened: as §1

[3] = test system: EPLC-272H
Procedure, shortened: as §1

[4] = test system: HCC-366
Procedure, shortened: as §1

[5] = test system: HCC-78
Procedure, shortened: as §1

[6] = test system: HOP-62
Procedure, shortened: as §1

[7] = test system: LC-2-ad
Procedure, shortened: as §1

[8] = test system: LCLC-97TM1
Procedure, shortened: as §1

[9] = test system: LU99A
Procedure, shortened: as §1

[10] = test system: LXF-289
Procedure, shortened: as §1

[11] = test system: NCI-H1755
Procedure, shortened: as §1

[12] = test system: NCI-H1792
Procedure, shortened: as §1

[13] = test system: NCI-H1915
Procedure, shortened: as §1

[14] = test system: NCI-H1944
Procedure, shortened: as §1

[15] = test system: NCI-H1975
Procedure, shortened: as §1

[16] = test system: NCI-H2085
Procedure, shortened: as §1

[17] = test system: NCI-H2170
Procedure, shortened: as §1

[18] = test system: NCI-H358
Procedure, shortened: as §1

[19] = test system: NCI-H460
Procedure, shortened: as §1

[20] = test system: SK-LU-1
Procedure, shortened: as §1

[21] = test system: UMC-11
Procedure, shortened: as §1

SMILES: C[C@@H]1CN(CC(=O)Nc2ccc3c(c2)Cc2cccc(-c4cc(=O)cc(N5CCOCC5)o4)c2S3)C[C@H](C)O1 + C[C@@H](Oc1cc(-c2cnn(C3CCNCC3)c2)cnc1N)c1c(Cl)ccc(F)c1Cl [Crizotinib] (partner 1 µM)
- relative viability ([1]; first compound 0.04 µM): 1.04
- relative viability ([1]; first compound 0.1265 µM): 0.941
- relative viability ([1]; first compound 0.4 µM): 0.827
- relative viability ([1]; first compound 4 µM): 0.844
- relative viability ([2]; first compound 0.04 µM): 0.766
- relative viability ([2]; first compound 0.1265 µM): 0.862
- relative viability ([2]; first compound 0.4 µM): 0.881
- relative viability ([2]; first compound 4 µM): 0.435
- relative viability ([3]; first compound 0.04 µM): 1.27
- relative viability ([3]; first compound 0.1265 µM): 0.971
- relative viability ([3]; first compound 0.4 µM): 0.997
- relative viability ([3]; first compound 4 µM): 0.83
- relative viability ([4]; first compound 0.04 µM): 0.5
- relative viability ([4]; first compound 0.1265 µM): 0.532
- relative viability ([4]; first compound 0.4 µM): 0.414
- relative viability ([4]; first compound 4 µM): 0.414
- relative viability ([5]; first compound 0.04 µM): 0.344
- relative viability ([5]; first compound 0.1265 µM): 0.349
- relative viability ([5]; first compound 0.4 µM): 0.308
- relative viability ([5]; first compound 4 µM): 0.348
- relative viability ([6]; first compound 0.04 µM): 0.876
- relative viability ([6]; first compound 0.1265 µM): 1
- relative viability ([6]; first compound 0.4 µM): 0.884
- relative viability ([6]; first compound 4 µM): 0.941
- relative viability ([7]; first compound 0.04 µM): 0.386
- relative viability ([7]; first compound 0.1265 µM): 0.455
- relative viability ([7]; first compound 0.4 µM): 0.434
- relative viability ([7]; first compound 4 µM): 0.43
- relative viability ([8]; first compound 0.1265 µM): 0.396
- relative viability ([8]; first compound 0.4 µM): 0.287
- relative viability ([8]; first compound 4 µM): 0.337
- relative viability ([9]; first compound 0.04 µM): 0.523
- relative viability ([9]; first compound 0.1265 µM): 0.636
- relative viability ([9]; first compound 0.4 µM): 0.64
- relative viability ([9]; first compound 4 µM): 0.569
- relative viability ([10]; first compound 0.04 µM): 0.777
- relative viability ([10]; first compound 0.1265 µM): 0.877
- relative viability ([10]; first compound 0.4 µM): 0.814
- relative viability ([10]; first compound 4 µM): 0.799
- relative viability ([11]; first compound 0.04 µM): 0.92
- relative viability ([11]; first compound 0.1265 µM): 0.86
- relative viability ([11]; first compound 0.4 µM): 0.816
- relative viability ([11]; first compound 4 µM): 0.792
- relative viability ([12]; first compound 0.04 µM): 0.966
- relative viability ([12]; first compound 0.1265 µM): 0.921
- relative viability ([12]; first compound 0.4 µM): 0.959
- relative viability ([12]; first compound 4 µM): 0.932
- relative viability ([13]; first compound 0.04 µM): 0.9
- relative viability ([13]; first compound 0.1265 µM): 0.886
- relative viability ([13]; first compound 0.4 µM): 0.95
- relative viability ([13]; first compound 4 µM): 0.853
- relative viability ([14]; first compound 0.1265 µM): 1.09
- relative viability ([14]; first compound 0.4 µM): 1.22
- relative viability ([14]; first compound 4 µM): 1.16
- relative viability ([15]; first compound 0.04 µM): 0.947
- relative viability ([15]; first compound 0.1265 µM): 0.905
- relative viability ([15]; first compound 0.4 µM): 0.937
- relative viability ([15]; first compound 4 µM): 0.781
- relative viability ([16]; first compound 0.04 µM): 0.922
- relative viability ([16]; first compound 0.1265 µM): 0.88
- relative viability ([16]; first compound 0.4 µM): 0.773
- relative viability ([16]; first compound 4 µM): 0.665
- relative viability ([17]; first compound 0.1265 µM): 1.2
- relative viability ([17]; first compound 0.4 µM): 1.21
- relative viability ([17]; first compound 4 µM): 1.1
- relative viability ([18]; first compound 0.04 µM): 0.456
- relative viability ([18]; first compound 0.1265 µM): 0.465
- relative viability ([18]; first compound 0.4 µM): 0.718
- relative viability ([18]; first compound 4 µM): 0.365
- relative viability ([19]; first compound 0.04 µM): 0.973
- relative viability ([19]; first compound 0.1265 µM): 0.924
- relative viability ([19]; first compound 0.4 µM): 0.971
- relative viability ([19]; first compound 4 µM): 0.662
- relative viability ([20]; first compound 0.04 µM): 1.08
- relative viability ([20]; first compound 0.1265 µM): 0.905
- relative viability ([20]; first compound 0.4 µM): 0.902
- relative viability ([20]; first compound 4 µM): 0.605
- relative viability ([21]; first compound 0.04 µM): 0.747
- relative viability ([21]; first compound 0.1265 µM): 0.644
- relative viability ([21]; first compound 0.4 µM): 0.613
- relative viability ([21]; first compound 4 µM): 0.385

Reference: the supplement of paper PMC10307832
